How the values were obtained:
[1] = target: T1, CYP3A4 (Homo sapiens, UniProt P08684); test: CYP enzyme inhibition test, Vivid CYP3A4 Red Screening Kit; format: in vitro ADME; details: for inhibitory effect on CYP3A4: conclusion in words
T1 construct: purchased
Procedure: (§1) Experimental Example 6: CYP Enzyme Inhibition Test CYP450 is the most important enzyme system in drug metabolism. The enzymes involved in metabolism interact with drugs, and the most important ones are CYP1A2, CYP2D6 and CYP3A4. P450-Glo™ CYP1A2 Screening System, Vivid® CYP2D6 Cyan Screening Kit and Vivid® CYP3A4 Red Screening Kit were used in this test, and the inhibitory effects of the compounds on CYP1A2, CYP2D6 and CYP3A4 were determined according to the instructions of the kit.

[2] = target: T2, CYP2D6 (Homo sapiens, UniProt P10635); test: CYP enzyme inhibition test, Vivid CYP2D6 Cyan Screening Kit; format: in vitro ADME; details: for inhibitory effect on CYP2D6: conclusion in words
T2 construct: purchased
Procedure: as §1

[3] = target: T3, CYP1A2 (Homo sapiens, UniProt P05177); test: CYP enzyme inhibition test, P450-Glo CYP1A2 Screening System; format: in vitro ADME; details: for inhibitory effect on CYP1A2: conclusion in words
T3 construct: purchased
T3 sequence (P05177 1-516): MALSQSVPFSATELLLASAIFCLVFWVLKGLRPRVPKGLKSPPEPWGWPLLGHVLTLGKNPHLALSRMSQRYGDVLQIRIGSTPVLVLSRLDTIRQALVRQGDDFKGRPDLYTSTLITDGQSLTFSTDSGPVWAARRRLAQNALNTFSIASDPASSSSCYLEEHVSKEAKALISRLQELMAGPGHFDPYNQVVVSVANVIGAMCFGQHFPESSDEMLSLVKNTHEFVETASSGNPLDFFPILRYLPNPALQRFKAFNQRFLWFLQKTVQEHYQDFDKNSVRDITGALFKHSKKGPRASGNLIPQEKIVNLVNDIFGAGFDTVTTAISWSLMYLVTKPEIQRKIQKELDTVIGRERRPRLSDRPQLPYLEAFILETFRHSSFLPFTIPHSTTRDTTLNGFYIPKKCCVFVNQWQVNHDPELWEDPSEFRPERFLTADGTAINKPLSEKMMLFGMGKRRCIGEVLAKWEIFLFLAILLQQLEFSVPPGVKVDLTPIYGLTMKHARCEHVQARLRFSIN
Procedure: as §1

[4] = target: T4, hERG potassium channel (Homo sapiens, UniProt Q12809); test: in vitro
[5] = target: T4, hERG potassium channel
[6] = target: T4, hERG potassium channel; test: cell-based
[7] = target: T4, hERG potassium channel; test: hERG test, Predictor hERG Fluorescence Polarization Assay Kit; format: binding; parameters: expressed in transfected cells; host or cells: HEK-293; details: test concentrations 1 μM and 10 μM
Description: Experimental Example 5: hERG Test
1. Predictor™ hERG Fluorescence Polarization Assay Kit (ThermoFisher) was used to test the inhibitory effect of the compounds on hERG potassium channel according to the instructions of the kit.

T1 sequence (P08684 whole entry): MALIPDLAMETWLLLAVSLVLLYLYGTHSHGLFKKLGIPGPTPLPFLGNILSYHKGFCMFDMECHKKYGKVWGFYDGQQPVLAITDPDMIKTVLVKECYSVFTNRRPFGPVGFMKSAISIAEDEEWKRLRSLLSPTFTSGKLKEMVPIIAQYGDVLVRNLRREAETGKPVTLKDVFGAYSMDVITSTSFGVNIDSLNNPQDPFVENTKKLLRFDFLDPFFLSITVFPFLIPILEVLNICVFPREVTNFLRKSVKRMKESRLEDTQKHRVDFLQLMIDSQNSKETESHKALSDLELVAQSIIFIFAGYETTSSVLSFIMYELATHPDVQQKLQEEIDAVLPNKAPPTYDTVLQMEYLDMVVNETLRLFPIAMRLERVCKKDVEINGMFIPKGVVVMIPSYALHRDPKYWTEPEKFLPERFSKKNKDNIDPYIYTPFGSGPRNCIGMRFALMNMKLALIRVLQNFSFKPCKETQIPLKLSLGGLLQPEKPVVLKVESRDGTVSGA
T4 sequence (Q12809 whole entry): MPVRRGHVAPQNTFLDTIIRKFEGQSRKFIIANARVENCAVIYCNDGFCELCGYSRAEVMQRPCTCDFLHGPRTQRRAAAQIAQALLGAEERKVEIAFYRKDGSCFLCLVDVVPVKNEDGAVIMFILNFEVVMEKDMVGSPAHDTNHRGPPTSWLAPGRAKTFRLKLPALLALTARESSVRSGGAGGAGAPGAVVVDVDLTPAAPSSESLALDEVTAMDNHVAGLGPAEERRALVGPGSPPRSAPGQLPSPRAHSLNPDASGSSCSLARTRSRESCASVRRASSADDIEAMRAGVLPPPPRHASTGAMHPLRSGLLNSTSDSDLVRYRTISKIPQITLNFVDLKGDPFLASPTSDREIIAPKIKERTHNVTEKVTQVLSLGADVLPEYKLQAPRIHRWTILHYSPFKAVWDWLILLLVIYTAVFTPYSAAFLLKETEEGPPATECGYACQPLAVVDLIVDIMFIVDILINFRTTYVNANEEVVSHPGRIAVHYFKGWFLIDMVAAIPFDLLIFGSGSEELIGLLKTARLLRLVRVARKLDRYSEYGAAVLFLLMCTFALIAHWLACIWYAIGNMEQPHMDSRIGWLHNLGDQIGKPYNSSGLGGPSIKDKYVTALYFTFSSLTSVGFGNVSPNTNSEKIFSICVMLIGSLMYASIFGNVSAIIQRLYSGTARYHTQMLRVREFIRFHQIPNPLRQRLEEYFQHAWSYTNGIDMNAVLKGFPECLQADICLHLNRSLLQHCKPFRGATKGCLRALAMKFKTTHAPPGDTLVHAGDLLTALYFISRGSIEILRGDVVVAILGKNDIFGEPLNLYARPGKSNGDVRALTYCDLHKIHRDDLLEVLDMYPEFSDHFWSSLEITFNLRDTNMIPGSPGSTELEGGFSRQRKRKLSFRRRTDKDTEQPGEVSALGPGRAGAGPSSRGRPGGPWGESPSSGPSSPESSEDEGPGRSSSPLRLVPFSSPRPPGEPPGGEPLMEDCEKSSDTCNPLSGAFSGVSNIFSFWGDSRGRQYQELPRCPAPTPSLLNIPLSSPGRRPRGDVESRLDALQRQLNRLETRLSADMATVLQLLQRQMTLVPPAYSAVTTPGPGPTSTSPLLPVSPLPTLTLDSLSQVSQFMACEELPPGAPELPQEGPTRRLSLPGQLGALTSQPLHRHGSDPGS
T2 sequence (P10635 whole entry): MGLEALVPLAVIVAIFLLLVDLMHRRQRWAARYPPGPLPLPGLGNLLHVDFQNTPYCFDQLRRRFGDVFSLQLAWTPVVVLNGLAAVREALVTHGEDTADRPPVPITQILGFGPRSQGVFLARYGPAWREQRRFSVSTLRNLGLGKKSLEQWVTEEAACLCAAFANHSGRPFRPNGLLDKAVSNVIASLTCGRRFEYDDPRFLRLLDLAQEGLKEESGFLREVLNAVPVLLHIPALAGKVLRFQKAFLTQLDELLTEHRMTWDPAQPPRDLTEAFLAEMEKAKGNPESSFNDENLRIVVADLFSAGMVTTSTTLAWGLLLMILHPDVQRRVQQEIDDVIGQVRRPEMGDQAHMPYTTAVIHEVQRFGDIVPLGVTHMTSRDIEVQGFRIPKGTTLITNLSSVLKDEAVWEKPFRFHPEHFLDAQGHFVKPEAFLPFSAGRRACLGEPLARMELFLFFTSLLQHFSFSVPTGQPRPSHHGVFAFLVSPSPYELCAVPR

Question: Which results are given for `Nc1cc(N[C@@H]2CC[C@H](O)C2)c2sc(-c3ccn[nH]3)cc2n1` [Compound 31, (1S,3R)-3-((5-amino-2-(1H-pyrazol-5-yl)thieno[3,2-b]pyridin-7-yl)amino)cyclopentanol]?
Answer: IC50 [1]: > 10 µM; inhibitory effect on CYP3A4 [1]: no apparent inhibitory effects; IC50 [2]: > 10 µM; inhibitory effect on CYP2D6 [2]: no apparent inhibitory effects; IC50 [3]: > 10 µM; inhibitory effect on CYP1A2 [3]: no apparent inhibitory effects

Question: With `COCCNc1cc(N)nc2cc(-c3ccn[nH]3)sc12` [Compound 100, N^7-(2-methoxyethyl)-2-(1H-pyrazol-5-yl)thieno[3,2-b]pyridine-5,7-diamine] as the molecule, how does the inhibition at 10 μM [4] read?
Answer: 5.42 ± 2.2%

Question: And the “inhibitory effect on hERG” value [5]?
Answer: no apparent inhibitory effect

Question: And the IC50 [6]?
Answer: > 10 µM

Question: Which IC50 [1] does the source give for `COC(C)(C)CNc1cc(N)nc2cc(-c3ccn[nH]3)sc12` [Compound 111, N^7-(2′-methoxy-2′-methylpropyl)-2-(1H-pyrazol-5-yl)thieno[3,2-b]pyridine-5,7-diamine] here?
Answer: > 10 µM

Question: And the “inhibitory effect on CYP3A4” value [1]?
Answer: no apparent inhibitory effects

Question: What about the IC50 [2] of the same molecule?
Answer: > 10 µM

Question: What about the “inhibitory effect on CYP2D6” value [2] of the same molecule?
Answer: no apparent inhibitory effects

Question: What about the IC50 [3] of the same molecule?
Answer: > 10 µM

Question: And the “inhibitory effect on CYP1A2” value [3]?
Answer: no apparent inhibitory effects

Question: What about the IC50 [7] of the same molecule?
Answer: > 10 µM

Question: `Nc1cc(NC2COC2)c2sc(-c3ccn[nH]3)cc2n1` [Compound 112, N^7-(oxetan-3-yl)-2-(1H-pyrazol-5-yl)thieno[3,2-b]pyridine-5,7-diamine] was tested. Which IC50 [1] did it give?
Answer: > 10 µM

Question: What about the “inhibitory effect on CYP3A4” value [1] of the same molecule?
Answer: no apparent inhibitory effects

Question: What about the IC50 [2] of the same molecule?
Answer: > 10 µM

Question: What about the “inhibitory effect on CYP2D6” value [2] of the same molecule?
Answer: no apparent inhibitory effects

Question: What about the IC50 [3] of the same molecule?
Answer: > 10 µM

Question: What about the “inhibitory effect on CYP1A2” value [3] of the same molecule?
Answer: no apparent inhibitory effects

Question: And the IC50 [7]?
Answer: > 10 µM

Question: For `Nc1cc(NC2CCC(O)CC2)c2sc(-c3ccn[nH]3)cc2n1` (centres unmarked) [Compound 114, 4-((5-amino-2-(1H-pyrazol-5-yl)thieno[3,2-b]pyridin-7-yl)amino)-1-cyclohexanol], which IC50 [1] is on record?
Answer: > 10 µM

Question: What about the “inhibitory effect on CYP3A4” value [1] of the same molecule?
Answer: no apparent inhibitory effects

Question: What about the IC50 [2] of the same molecule?
Answer: > 10 µM

Question: And the “inhibitory effect on CYP2D6” value [2]?
Answer: no apparent inhibitory effects

Question: What about the IC50 [3] of the same molecule?
Answer: > 10 µM

Question: And the “inhibitory effect on CYP1A2” value [3]?
Answer: no apparent inhibitory effects

Question: What does the source list for `CC(C)(CO)CNc1cc(N)nc2cc(-c3ccn[nH]3)sc12` [Compound 115, 3-((5-amino-2-(1H-pyrazol-5-yl)thieno[3,2-b]pyridin-7-yl)amino)-2,2-dimethyl-1-propanol]?
Answer: IC50 [1]: > 10 µM; inhibitory effect on CYP3A4 [1]: no apparent inhibitory effects; IC50 [2]: > 10 µM; inhibitory effect on CYP2D6 [2]: no apparent inhibitory effects; inhibition at 10 μM [4]: 8.26 ± 3.66%; inhibitory effect on hERG [5]: no apparent inhibitory effect; IC50 [3]: > 10 µM; inhibitory effect on CYP1A2 [3]: no apparent inhibitory effects; IC50 [6]: > 10 µM

Question: Which inhibition at 10 μM [4] does the source give for `Nc1cc(NCC(F)F)c2sc(-c3ccn[nH]3)cc2n1` [Compound 116, N^7-(2,2-difluoroethyl)-2-(1H-pyrazol-5-yl)thieno[3,2-b]pyridine-5,7-diamine] here?
Answer: 18.5 ± 4.98%

Question: What about the “inhibitory effect on hERG” value [5] of the same molecule?
Answer: no apparent inhibitory effect

Question: What about the IC50 [6] of the same molecule?
Answer: > 10 µM

Question: What does the source list for `Nc1cc(NCC2CCOCC2)c2sc(-c3ccn[nH]3)cc2n1` [Compound 120, 2-(1H-pyrazol-5-yl)-N^7-((tetrahydro-2H-pyran-4-yl)methyl)thieno[3,2-b]pyridine-5,7-diamine]?
Answer: inhibition at 10 μM [4]: 11.7 ± 0.7%; inhibitory effect on hERG [5]: no apparent inhibitory effect; IC50 [6]: > 10 µM

From patent US20220056043A1, “NITROGEN-CONTAINING FUSED CYCLIC COMPOUND, PREPARATION METHOD THEREFOR AND USE THEREOF” (SICHUAN KELUN-BIOTECH BIOPHARMACEUTICAL CO., LTD., priority 2019, published 2022)
